Tests used:
[1] = tested on: rat corneal epithelial cells; test: Re-adhesion of detached and suspended cells to calcium phosphate film (F-actin fluorescent staining); type: cell-based
From the text: Whether the cells having been detached and suspended as described above were re-adhered by calcium ions was examined. Part of the bottom of the culture dish was coated with a slurry of calcium phosphate fine powder mixed with distilled water and dried in an oven to separately prepare a culture dish in which a film of fine powder of calcium phosphate was stuck to the bottom of the dish. Then, to the culture dish with the calcium phosphate film and the culture dish without the film (control), a cell culture solution containing the detached and suspended cells as described above was added, the culture dishes were placed on the base of a shaker (product name: Laboshaker Model BC-740, available from BIO CRAFT Corporation), the shaking intensity was set to the lowest level, the shaking frequency was set to 4 times/min, and the cells were cultured under normal cell culture conditions (37° C., CO2 concentration of 5%, humidity of 100%) for 24 hours while the culture dishes were gently shaken. The culture solution in each culture dish was then removed, and the culture dishes were gently washed with 10% FBS cell culture solution, and then viable cells adhered to the inner wall of the culture dishes were observed under a microscope (inverted fluorescence/visible microscope with cooled CCD camera, IX83, available from Olympus Corporation) by the fluorescent staining method of F-actin using viable cell staining by a fluorescent dye (CytoPainter F-actin Staining Kit, available from Abcam). The fluorescent staining method of F-action can be performed, for example, according to the method described in Vera D M, Robert J E, Ved P S, Orrin S and John S C, “Optimizing leading edge F-actin labeling using multiple actin probes, fixation methods and imaging modalities” BIOTECHNIQUES, VOL. 66, NO. 3, (2019), or in Michael M, Matthias P and Robert G “Actin visualization at a glance” n J. Cell Sci. 130, 525-530. (2017) doi:10.1242/jcs.20448.
In FIGS. 1 to 4, the part that looks white or gray is a viable cell group stained with the fluorescent dye.

[2] = tested on: Rat corneal epithelial cell; test: Cell protective effect: cell survival during preservation (trypan blue excretion test); type: cell-based; conditions: for Average survival rate at 72 hours: refrigerator 4° C.; for Average survival rate at 24 hours: normal temperature (22° C.)
Procedure: Using a normal serum-free cell culture solution without FBS or a Ringer's solution (Otsuka Pharmaceutical Co., Ltd., Lactec Injection, Japanese Pharmacopoeia, Sodium L-lactate Ringer's solution) as a conditioning solution for use, for example, in preservation and transportation of cells, sodium alginate (Na alginate) (Fuji Chemical Industry Co., Ltd. Snow Algin SSL, viscosity of 1% aqueous solution is 30 mPa·s at 20° C.) was added to the conditioning solution in the concentrations shown in Table 1 to prepare cell preservation solutions. To each cell preservation solution, the above-described cells were added at a concentration of 10^6 cells/ml to satisfy the conditions shown in Table 1, and the resultant solution was left to stand in a room at normal temperature (22° C.) for 24 hours, and then whether cells were alive or dead was determined, and rates of viable cells (average survival rate (%)) were calculated and compared. Cell viability was determined by the trypan blue excretion test that is the ordinary method of confirming cell viability. The excretion test was performed according to the method described in “Denizot F., et al., Rapid colorimetric assay for cell growth and survival. Modifications to the tetrazolium dye procedure giving improved sensitivity and reliability. J. Immunol. Methods, 89, 271-277 (1986)”. The results are of N=4.
The average survival rate (%) was determined in the same manner as in Experimental Example (1-1-1) except that the preservation conditions were changed to leaving still for 72 hours in a refrigerator at a set temperature of 4° C. The results are of N=4.
The average survival rate (%) of cells was determined in the same manner as in Experimental Example (1-1-1) except that dextran sulfate (dextran sulfate special grade reagent available from NACALAI TESQUE, INC.) was used instead of sodium alginate and the conditions were as shown in Table 3. The results are of N=4.
The average survival rate (%) of cells was determined in the same manner as in Experimental Example (1-2-1) except that the preservation conditions were changed to leaving still for 72 hours in a refrigerator at a set temperature of 4° C. and to conditions shown in Table 4. The results are of N=3 in the case of using a serum-free cell culture solution, and are of N=4 in the case of using a Ringer's solution.
The average survival rate (%) of cells was determined in the same manner as in Experimental Example (1-1-1) except that heparin sodium (Heparin Na Mochida, unfractionated heparin, available from Mochida Pharmaceutical Co., Ltd.) was used instead of alginic acid and the conditions were as shown in Table 5. The results are of N=4.
The average survival rate (%) of cells was determined in the same manner as in Experimental Example (1-3-1) except that the preservation conditions were changed to leaving still for 72 hours in a refrigerator at a set temperature of 4° C. and to conditions shown in Table 6. The results are of N=4.
The average survival rate (%) of cells was determined in the same manner as in Experimental Example (1-3-2) except that urinastatin (Miraclid injection solution, containing 2.5 million units, available from Mochida Pharmaceutical Co., Ltd.) was used as a proteolytic enzyme inhibitor instead of heparin sodium and the conditions were as shown in Table 7. The results are of N=4. “Unit (U)” in the unit of concentration (units/mL) of inhibitor a in Table 7 can be measured, for example, by the quantitative method of urinastatin in the Japanese Pharmacopoeia 15th revision. Specifically, absorbance at 405 nm of a sample solution is measured with a UV 240 spectrophotometer, and concentration of urinastatin can be calculated from a calibration curve prepared in advance. […]

[3] = culture dish with calcium phosphate film, 24 hours culture under gentle shaking (FIGS. 1 and 2)
[4] = culture dish without calcium phosphate film (control), 24 hours culture under gentle shaking (FIGS. 3 and 4)

Row | Substance | Re-adhesion of detached and suspended viable cells [1, 3] | Re-adhesion of detached and suspended viable cells [1, 4] | Average survival rate at 72 hours ([2]; Heparin Na 5 units/mL, Ringer's solution) [%] | Average survival rate at 24 hours ([2]; Heparin Na 5 units/mL, serum-free cell culture solution) [%] | Average survival rate at 72 hours ([2]; Heparin Na 25 units/mL, Ringer's solution) [%] | Average survival rate at 24 hours ([2]; Heparin Na 25 units/mL, serum-free cell culture solution) [%] | Average survival rate at 72 hours ([2]; Heparin Na 125 units/mL, Ringer's solution) [%] | Average survival rate at 24 hours ([2]; Heparin Na 125 units/mL, serum-free cell culture solution) [%] | Average survival rate at 72 hours ([2]; DS 0.003 mg/mL, Ringer's solution) [%] | Average survival rate at 24 hours ([2]; DS 0.003 mg/mL, serum-free cell culture solution) [%] | Average survival rate at 72 hours ([2]; DS 0.003 mg/mL, serum-free cell culture solution, N=3) [%] | Average survival rate at 72 hours ([2]; DS 0.1 mg/mL, Ringer's solution) [%] | Average survival rate at 24 hours ([2]; DS 0.1 mg/mL, serum-free cell culture solution) [%] | Average survival rate at 72 hours ([2]; DS 0.1 mg/mL, serum-free cell culture solution, N=3) [%] | Average survival rate at 72 hours ([2]; DS 1 mg/mL, Ringer's solution) [%] | Average survival rate at 24 hours ([2]; DS 1 mg/mL, serum-free cell culture solution) [%] | Average survival rate at 72 hours ([2]; DS 1 mg/mL, serum-free cell culture solution, N=3) [%]
1 | heparin sodium [Heparin Na, reference compound] | numerous viable cells were observed adhering | a very small number of viable cells adhered | 70 | 69 | 72 | 75 | 74 | 76 |  |  |  |  |  |  |  |  | 
2 | dextran sulfate [DS] | numerous viable cells were observed adhering | a very small number of viable cells adhered |  |  |  |  |  |  | 67 | 62 | 76 | 71 | 71 | 79 | 60 | 73 | 73
